Assay results: patent publication US20230293453A1, “SPERMIDINE AND USES THEREOF” (TLL THE LONGEVITY LABS GMBH, priority 2020, published 2023)

Legend:
ZSF1 obese rats [1] = experiment: Fasting insulin determination (ELISA), cardiometabolic syndrome model; type: in vivo, rat; settings: 10 weeks of treatment (8 weeks vs. 18 weeks of age), plasma, 6-h fasted, FIG. 6b
Procedure: (§1) Cardiometabolic syndrome model: ZSF1 lean and obese rats of both genders were purchased at the age of 5 weeks from the Charles River Laboratories (Kingston, USA). Eight-week-old ZSF1 obese rats were divided into three weight-matched and equally sized/gender-balanced groups: group 1 received regular drinking water (non-treated control), group 2 received regular drinking water supplemented with 40 mM nicotinamide (i.e. 0.5% w/v), and group 3 was administered the combination of 40 mM nicotinamide and 3 mM spermidine (of synthetical origin) in drinking water for a period of 14 weeks. Water as well as food intake were monitored regularly. Age-matched untreated ZSF1 obese and lean rats served as controls.
Fasted blood samples were collected from the clavicular vena plexus/jugular vein of 6-h fasted (6 AM-12 AM) and lightly anesthetized rats (2% isoflurane and 98% O2), whose body temperature was maintained at 37° C. using a temperature-controlled heating platform. Fasting insulin was measured in plasma using ultrasensitive rat ELISA kits (Crystal Chem) according to the manufacturer's protocol. The sampling and measurement was conducted at the age of 8 weeks (baseline) and at the age of 18 weeks. The fold-change was calculated by dividing the values form 18-weeks old animals and 8-weeks old animals.

Aged C57BL/6J male mice [2] = experiment: Diastolic function by echocardiography, aging model; type: in vivo, mouse; settings: 24 mM nicotinamide, with or without 3 mM spermidine, in drinking water for 4 months, FIG. 2a
Procedure: Aging model: Aged C57BL/6J male mice were purchased from the Charles River Laboratories (Sulzfeld, Germany) at the age of 18 months and fed standard chow. Supplementation of 24 mM nicotinamide (i.e. 0.3% w/v, changed two times per week) and of spermidine (i.e. 3 mM final concentration at pH 7.2, changed two times per week) in the regular drinking water was conducted at 20 months of age for a period of 4 months. […] Transthoracic echocardiography was performed using high resolution micro-imaging system equipped with a 24- and 55-MHz linear array transducers for rats and mice, respectively, as described (Eisenberg et al. (2016), Nat Med 22(12): 1428-1438). Briefly, lightly anesthetized mice (0.5% isoflurane and 99.5% 02) were placed in the supine position on a temperature-controlled heating platform to maintain their body temperature at 37° C. Diastolic function was assessed using pulsed-wave and tissue Doppler imaging to determine the ratio between peak early-filling velocity of transmitral flow (E) and the corresponding mitral valve annulus velocity (e′), respectively.

[3] = literature: Gale et al. 2004, Chen et al. 2015, Poyan et al. 2018; cited from earlier work
[4] = tested on: Dahl salt-sensitive male rats; experiment: Cardiac hypertrophy by gravimetry, salt-induced hypertensive heart disease model; type: in vivo, rat; settings: Dahl rats on high-salt diet; 40 mM nicotinamide in drinking water for 12 weeks; FIG. 3b
From the text: Salt-induced hypertensive heart disease model: Dahl salt-sensitive male rats (n=24) were purchased at the age of 4 weeks from the Charles River Laboratories (Kingston, USA). Eight rats were fed the low-salt diet containing 0.3% NaCl (AIN-76A, Research Diets, Inc. USA) throughout the experiment and served as a healthy control group. Low-salt diet was fed also to the remaining 16 Dahl rats until the age of 7 weeks, when the diet was switched to a high-salt diet (AIN-76A with 8% NaCl, Research Diets, Inc. USA), and the rats were divided into two weight-matched cohorts each consisting of two equally sized groups (n=8 animals per group); group 1 received regular drinking water (non-treated control), while group 2 received regular drinking water supplemented with 40 mM nicotinamide (i.e. 0.5% w/v) for a period of 12 weeks. The heart was harvested and weighed, obtaining the heart weight (HW). For normalisation, the weight was subsequently divided by the length of the left tibia bone (TL), resulting in the ratio HW/TL.

ZSF1 obese rats [5] = experiment: Fasting glucose determination, cardiometabolic syndrome model; type: in vivo, rat; settings: 10 weeks of treatment (8 weeks vs. 18 weeks of age), tail vein blood, FIG. 6a
Procedure: as §1
The basal fasting blood glucose level was determined by collecting a drop of blood from the tail vein. Blood droplet was applied to a test strip that was inserted into a glucose analyzer (glucometer, Accu-Chek Performa). The sampling and measurement was conducted at the age of 8 weeks (baseline) and at the age of 18 weeks. The fold-change was calculated by dividing the values form 18-weeks old animals and 8-weeks old animals.

ZSF1 obese rats [6] = experiment: Exercise capacity by exercise calorimetry, cardiometabolic syndrome model; type: in vivo, rat; settings: 40 mM nicotinamide, with or without 3 mM spermidine, in drinking water for 14 weeks, treadmill peak effort, FIG. 4b
Procedure: Eight-week-old ZSF1 obese rats were divided into three weight-matched and equally sized/gender-balanced groups: group 1 received regular drinking water (non-treated control), group 2 received regular drinking water supplemented with 40 mM nicotinamide (i.e. 0.5% w/v), and group 3 was administered the combination of 40 mM nicotinamide and 3 mM spermidine (of synthetical origin) in drinking water for a period of 14 weeks. Water as well as food intake were monitored regularly. Age-matched untreated ZSF1 obese and lean rats served as controls. Rats were subjected to peak effort on a closed-chamber treadmill at an inclination of 10° coupled to a gas analyzer (CaloTreadmill). […] The exercise session ended at the maximal fatigue, which was defined as the lack of ability to maintain running speed despite being in contact with the electric shock for more than 5 seconds. Calorimetric parameters, such as relative oxygen consumption (ΔVO2) and carbon dioxide production (ΔVCO2) were continuously measured at 0.2 Hz intervals during treadmill running. Maximal oxygen consumption (VO2max) and run distance were determined at the point at which oxygen uptake reached a plateau during exhaustive workout/exercise.

[7] = tested on: Dahl salt-sensitive male rats; experiment: Exercise capacity by exercise calorimetry, salt-induced hypertensive heart disease model; type: in vivo, rat; settings: Dahl rats on high-salt diet; 40 mM nicotinamide in drinking water for 12 weeks; treadmill peak effort; FIG. 4a
From the text: Salt-induced hypertensive heart disease model: Dahl salt-sensitive male rats (n=24) were purchased at the age of 4 weeks from the Charles River Laboratories (Kingston, USA). Eight rats were fed the low-salt diet containing 0.3% NaCl (AIN-76A, Research Diets, Inc. USA) throughout the experiment and served as a healthy control group. Low-salt diet was fed also to the remaining 16 Dahl rats until the age of 7 weeks, when the diet was switched to a high-salt diet (AIN-76A with 8% NaCl, Research Diets, Inc. USA), and the rats were divided into two weight-matched cohorts each consisting of two equally sized groups (n=8 animals per group); group 1 received regular drinking water (non-treated control), while group 2 received regular drinking water supplemented with 40 mM nicotinamide (i.e. 0.5% w/v) for a period of 12 weeks. Rats were subjected to peak effort on a closed-chamber treadmill at an inclination of 10° coupled to a gas analyzer (CaloTreadmill). […] Calorimetric parameters, such as relative oxygen consumption (ΔVO2) and carbon dioxide production (ΔVCO2) were continuously measured at 0.2 Hz intervals during treadmill running. Maximal oxygen consumption (VO2max) and run distance were determined at the point at which oxygen uptake reached a plateau during exhaustive workout/exercise.

Aged C57BL/6J male mice [8] = experiment: Cardiac hypertrophy by gravimetry, aging model; type: in vivo, mouse; settings: 24 mM nicotinamide, with or without 3 mM spermidine, in drinking water for 4 months, FIG. 3a
Procedure: Aging model: Aged C57BL/6J male mice were purchased from the Charles River Laboratories (Sulzfeld, Germany) at the age of 18 months and fed standard chow. Supplementation of 24 mM nicotinamide (i.e. 0.3% w/v, changed two times per week) and of spermidine (i.e. 3 mM final concentration at pH 7.2, changed two times per week) in the regular drinking water was conducted at 20 months of age for a period of 4 months. […] The heart was harvested and weighed, obtaining the heart weight (HW). For normalisation, the weight was subsequently divided by the length of the left tibia bone (TL), resulting in the ratio HW/TL.

[9] = tested on: Dahl salt-sensitive male rats; experiment: Diastolic function by hemodynamic pressure-volume measurement, salt-induced hypertensive heart disease model; type: in vivo, rat; settings: Dahl rats on high-salt diet; 40 mM nicotinamide in drinking water for 12 weeks; FIG. 2b
From the text: Salt-induced hypertensive heart disease model: Dahl salt-sensitive male rats (n=24) were purchased at the age of 4 weeks from the Charles River Laboratories (Kingston, USA). Eight rats were fed the low-salt diet containing 0.3% NaCl (AIN-76A, Research Diets, Inc. USA) throughout the experiment and served as a healthy control group. Low-salt diet was fed also to the remaining 16 Dahl rats until the age of 7 weeks, when the diet was switched to a high-salt diet (AIN-76A with 8% NaCl, Research Diets, Inc. USA), and the rats were divided into two weight-matched cohorts each consisting of two equally sized groups (n=8 animals per group); group 1 received regular drinking water (non-treated control), while group 2 received regular drinking water supplemented with 40 mM nicotinamide (i.e. 0.5% w/v) for a period of 12 weeks. […] The heart rate was monitored by an electrocardiogram (Animal Bio Amp, FE136) and kept at 350-400 bpm throughout the experiment. […] Signals were continuously acquired (MPVS PL3508 PowerLab 8/35), digitized at 2 kHz (ML880 PowerLab 16/30), and analyzed offline (LabChart 8 Pro). After a stabilization period of 10 min, left ventricular end-diastolic pressure (EDP), a baseline parameter of diastolic function, was measured and aver-aged from ten consecutive beats, with ventilation suspended at end-expiration. […]

ZSF1 obese rats [10] = experiment: Myocardial nicotinamide and NAD+ levels by mass spectrometry, cardiometabolic syndrome model; type: in vivo, rat; settings: 40 mM nicotinamide, with or without 3 mM spermidine, in drinking water for 14 weeks
Procedure: Cardiometabolic syndrome model: ZSF1 lean and obese rats of both genders were purchased at the age of 5 weeks from the Charles River Laboratories (Kingston, USA). Eight-week-old ZSF1 obese rats were divided into three weight-matched and equally sized/gender-balanced groups: group 1 received regular drinking water (non-treated control), group 2 received regular drinking water supplemented with 40 mM nicotinamide (i.e. 0.5% w/v), and group 3 was administered the combination of 40 mM nicotinamide and 3 mM spermidine (of synthetical origin) in drinking water for a period of 14 weeks. Water as well as food intake were monitored regularly. Age-matched untreated ZSF1 obese and lean rats served as controls. The mass spectrometric metabolomic analysis of nicotinamide and NAD^+ in rat myocardium was performed as described previously ([…]., et al. Aging (Albany NY) 11(2019):4783-4800). About 30 mg of tissue was weighed and solubilized in tubes with ceramic beads using 1 ml of cold lysate buffer (methanol:water ratio was 9:1; at -20° C.). Tissue samples were then homogenized three times for 20 s at 5.500 rpm using a Precellys 24 tissue homogenizer followed by centrifugation for 10 min at 15.000 g and 4° C. […] Peak detection and integration of the analytes were performed using the Agilent Mass Hunter quantitative software (B.07.01). […]

ZSF1 obese rats [11] = experiment: Lung congestion by gravimetry, cardiometabolic syndrome model; type: in vivo, rat; settings: 40 mM nicotinamide, with or without 3 mM spermidine, in drinking water for 14 weeks, FIG. 5b
Procedure: as §1
(§2) The lung was harvested and weighed, obtaining the lung weight (LW). For normalisation, the weight was subsequently divided by the length of the left tibia bone (TL), resulting in the ratio LW/TL.
This measurement was conducted according to the method of item 2.4.1.

[12] = tested on: Dahl salt-sensitive male rats; experiment: Lung congestion by gravimetry, salt-induced hypertensive heart disease model; type: in vivo, rat; settings: Dahl rats on high-salt diet; 40 mM nicotinamide in drinking water for 12 weeks; FIG. 5a
From the text: Salt-induced hypertensive heart disease model: Dahl salt-sensitive male rats (n=24) were purchased at the age of 4 weeks from the Charles River Laboratories (Kingston, USA). Eight rats were fed the low-salt diet containing 0.3% NaCl (AIN-76A, Research Diets, Inc. USA) throughout the experiment and served as a healthy control group. Low-salt diet was fed also to the remaining 16 Dahl rats until the age of 7 weeks, when the diet was switched to a high-salt diet (AIN-76A with 8% NaCl, Research Diets, Inc. USA), and the rats were divided into two weight-matched […] groups (n=8 animals per group); group 1 received regular drinking water (non-treated control), while group 2 received regular drinking water supplemented with 40 mM nicotinamide (i.e. 0.5% w/v) for a period of 12 weeks.
as §2

ZSF1 obese rats [13] = experiment: Cardiac hypertrophy by gravimetry, cardiometabolic syndrome model; type: in vivo, rat; settings: 40 mM nicotinamide, with or without 3 mM spermidine, in drinking water for 14 weeks, FIG. 3c
Procedure: Cardiometabolic syndrome model: ZSF1 lean and obese rats of both genders were purchased at the age of 5 weeks from the Charles River Laboratories (Kingston, USA). Eight-week-old ZSF1 obese rats were divided into three weight-matched and equally sized/gender-balanced groups: group 1 received regular drinking water (non-treated control), group 2 received regular drinking water supplemented with 40 mM nicotinamide (i.e. 0.5% w/v), and group 3 was administered the combination of 40 mM nicotinamide and 3 mM spermidine (of synthetical origin) in drinking water for a period of 14 weeks. Water as well as food intake were monitored regularly. Age-matched untreated ZSF1 obese and lean rats served as controls. The heart was harvested and weighed, obtaining the heart weight (HW). For normalisation, the weight was subsequently divided by the length of the left tibia bone (TL), resulting in the ratio HW/TL.

ZSF1 obese rats [14] = experiment: Diastolic function by echocardiography, cardiometabolic syndrome model; type: in vivo, rat; settings: 40 mM nicotinamide, with or without 3 mM spermidine, in drinking water for 14 weeks, FIG. 2c
Procedure: Cardiometabolic syndrome model: ZSF1 lean and obese rats of both genders were purchased at the age of 5 weeks from the Charles River Laboratories (Kingston, USA). Eight-week-old ZSF1 obese rats were divided into three weight-matched and equally sized/gender-balanced groups: group 1 received regular drinking water (non-treated control), group 2 received regular drinking water supplemented with 40 mM nicotinamide (i.e. 0.5% w/v), and group 3 was administered the combination of 40 mM nicotinamide and 3 mM spermidine (of synthetical origin) in drinking water for a period of 14 weeks. Water as well as food intake were monitored regularly. Age-matched untreated ZSF1 obese and lean rats served as controls. Transthoracic echocardiography was performed using high resolution micro-imaging system equipped with a 24- and 55-MHz linear array transducers for rats and mice, respectively, as described (Eisenberg et al. (2016), Nat Med 22(12): 1428-1438). […] Diastolic function was assessed using pulsed-wave and tissue Doppler imaging to determine the ratio between peak early-filling velocity of transmitral flow (E) and the corresponding mitral valve annulus velocity (e′), respectively. This measurement was conducted according to the method of item 2.1.1, with the exception that the rats were lightly anesthetized with 1-2% isoflurane and 98-99% 02.

obese rats = experiment: Intraperitoneal glucose tolerance test, spermidine alone in obese rats; type: in vivo, rat; settings: 10 weeks of spermidine alone, 1 g/kg glucose i.p., 12-h fasted, age 18 weeks, compared with control obese rats, FIG. 8
Procedure: Intraperitoneal glucose tolerance test was performed at 6 AM from 12-h fasted rats. During the experiment, rats were singly housed in empty cages without food, water or bed-ding. The basal fasting blood glucose level was determined by collecting a drop of blood from the tail vein. Blood droplet was applied onto a test strip that was inserted into a glucose analyzer (glucometer, Accu-Chek Performa). Rats were then injected intraperitoneally with 1 g of glucose per kg fasting body mass, and blood glucose levels were determined 15, 30, 60, 90 and 120 min after glucose. The sampling and measurement were conducted at the age of 18 weeks.

## NC(=O)c1cccnc1 [nicotinamide]
ZSF1 obese rats [1]
  fasting insulin level (fold-change 18 weeks vs 8 weeks): increased
Aged C57BL/6J male mice [2]
  quotient E/e' (measure of diastolic dysfunction): reduced
[3]
  tolerability at high doses during chronical administration: well-tolerated
[4]
  heart weight-to-tibia length ratio (HW/TL), marker of cardiac hypertrophy: reduced to levels similar to the control
ZSF1 obese rats [5]
  fasting glucose level (fold-change 18 weeks vs 8 weeks): increased
ZSF1 obese rats [6]
  maximal oxygen consumption (VO2max): increased
  run distance: increased
[7]
  maximal oxygen consumption (VO2max): increased
  run distance: increased
Aged C57BL/6J male mice [8]
  heart weight-to-tibia length ratio (HW/TL), marker of cardiac hypertrophy: reduced
[9]
  left ventricular end-diastolic pressure (EDP), marker for diastolic dysfunction: reduced
ZSF1 obese rats [10]; FIG. 1 left
  myocardial level of nicotinamide (NAM): significantly increased
ZSF1 obese rats [10]; FIG. 1 right
  myocardial level of nicotinamide adenine dinucleotide+ (NAD+): significantly increased
ZSF1 obese rats [11]
  ratio LW/TL (lung weight to tibia length), measure of lung congestion: compensated this effect
[12]
  ratio LW/TL (lung weight to tibia length), measure of lung congestion: decrease
ZSF1 obese rats [13]
  heart weight-to-tibia length ratio (HW/TL), marker of cardiac hypertrophy: reduced
ZSF1 obese rats [14]
  quotient E/e' (measure of diastolic dysfunction): reduced

## NCCCCNCCCN [spermidine]
ZSF1 obese rats [1]
  fasting insulin level (fold-change 18 weeks vs 8 weeks): no significant influence
ZSF1 obese rats [5]
  fasting glucose level (fold-change 18 weeks vs 8 weeks): no significant influence
Obese rats
  glucose clearance curve (also as AUC): did not change
